Data as given in patent US10253018B2, “Apoptosis signal-regulating kinase 1 inhibitors and methods of use thereof” (ENANTA PHARMACEUTICALS, INC., priority 2017, dated 2019).

Target: ASK1 (Homo sapiens (Human), UniProt Q99683)
Assay: HTRF KinEASE Assay (TR-FRET), inhibition of ASK1
Assay type: biochemical
Details: 5 nM ASK1 kinase, 1 uM STK3 peptide substrate, 100 uM ATP, 3 hours
Source text: Assays HTRF® KinEASE™ Assay ASK1 was purchased from Thermofisher (Catalogue # PV4011), ATP was purchased from Sigma (Catalogue # A7699), HTRF® KinEASE™ Assay System was obtained from Cisbio (Bedford, Mass.). ½ Area plate was purchased from Perkin Elmer (Catalogue # #6005560). HTRF® KinEASE™-STK is a generic method for measuring serine/threonine kinase activities using a time-resolved fluorescence resonance energy transfer (TR-FRET) immunoassay. […] The STK3-antibody labeled with Eu^3+-Cryptate and 125 nM streptavidin-XL665 are mixed in a single addition with stop reagents provided by the Cisbio kit used to stop the kinase reaction. Fluorescence is detected using an Envision Multilabeled 2014 reader from PerkinElmer. The Fluorescence is measured at 615 nm (Cryptate) and 665 nm (XL665) and a ratio of 665 nm/615 nm is calculated for each well. The resulting TR-FRET is proportional to the phosphorylation level. Staurosporine was used as the positive control. IC50 was determined by XLfit 5.3.

ASK1, sequence (Q99683 whole entry): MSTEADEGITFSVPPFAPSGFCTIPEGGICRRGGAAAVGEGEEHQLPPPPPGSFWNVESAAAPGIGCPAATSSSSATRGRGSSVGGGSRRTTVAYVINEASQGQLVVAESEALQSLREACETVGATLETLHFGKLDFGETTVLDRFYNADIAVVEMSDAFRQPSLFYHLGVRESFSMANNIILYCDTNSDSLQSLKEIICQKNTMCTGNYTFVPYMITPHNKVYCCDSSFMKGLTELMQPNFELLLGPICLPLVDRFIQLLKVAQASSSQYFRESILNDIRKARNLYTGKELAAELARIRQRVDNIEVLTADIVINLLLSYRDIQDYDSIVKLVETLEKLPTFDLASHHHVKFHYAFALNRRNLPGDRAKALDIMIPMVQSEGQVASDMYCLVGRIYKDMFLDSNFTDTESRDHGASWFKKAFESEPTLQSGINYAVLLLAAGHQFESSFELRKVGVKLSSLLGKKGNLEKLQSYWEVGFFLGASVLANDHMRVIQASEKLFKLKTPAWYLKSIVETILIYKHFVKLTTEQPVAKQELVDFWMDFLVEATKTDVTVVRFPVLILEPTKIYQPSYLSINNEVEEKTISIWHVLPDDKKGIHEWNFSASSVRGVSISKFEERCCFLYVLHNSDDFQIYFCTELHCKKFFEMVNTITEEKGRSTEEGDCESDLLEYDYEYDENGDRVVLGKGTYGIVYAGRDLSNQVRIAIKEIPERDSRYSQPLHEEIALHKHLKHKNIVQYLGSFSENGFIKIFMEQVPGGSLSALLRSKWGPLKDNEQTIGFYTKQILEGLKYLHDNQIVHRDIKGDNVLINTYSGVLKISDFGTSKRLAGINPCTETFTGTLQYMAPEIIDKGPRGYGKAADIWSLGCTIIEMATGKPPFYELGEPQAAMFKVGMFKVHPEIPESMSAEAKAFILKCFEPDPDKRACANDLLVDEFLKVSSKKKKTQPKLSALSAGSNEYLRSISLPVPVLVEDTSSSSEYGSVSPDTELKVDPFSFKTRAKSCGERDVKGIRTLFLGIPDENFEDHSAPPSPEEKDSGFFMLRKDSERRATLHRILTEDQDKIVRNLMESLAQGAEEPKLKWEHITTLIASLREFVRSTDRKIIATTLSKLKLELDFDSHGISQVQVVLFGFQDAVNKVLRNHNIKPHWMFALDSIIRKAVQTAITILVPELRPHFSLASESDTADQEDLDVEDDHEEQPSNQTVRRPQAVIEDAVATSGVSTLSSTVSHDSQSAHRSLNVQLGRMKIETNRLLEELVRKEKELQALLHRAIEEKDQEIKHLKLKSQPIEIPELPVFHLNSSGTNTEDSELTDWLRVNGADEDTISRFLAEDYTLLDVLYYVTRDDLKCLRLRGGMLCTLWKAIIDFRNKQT

Compound	IC50 [nM]
CC(C)n1cnnc1-c1cccc(NC(=O)c2ccc3ccc(N4CC5(COC5)C4)nc3c2)n1 [Example 29]	> 1000
CC(C)Nc1nc2cc(C(=O)Nc3cccc(-c4nnnn4C(C)C)n3)c(F)cc2nc1OC(C)C [Example 14]	> 1000
CC(C)n1cnnc1-c1cccc(NC(=O)c2ccc3ccc(NC4CCCCC4)nc3c2)n1 [Example 28]	> 1000
CC(C)n1cnnc1-c1cccc(NC(=O)c2ccc3ccc(N4CCCCC4)nc3c2)n1 [Example 26]	10 to 100
COc1nc2ccc(C(=O)Nc3cccc(-c4nncn4C(C)C)n3)cc2nc1N1CCOCC1 [Example 2]	100 to 1000
CC(C)Nc1nc2cc(C(=O)Nc3cccc(-c4nnnn4[C@@H](C)CO)n3)c(F)cc2nc1OC(C)C [Example 17]	> 1000
CC(C)n1cnnc1-c1cccc(NC(=O)c2cc3cc(-n4cnc(C5CC5)c4)ccc3cn2)n1 [Example 22]	1 to 10
CC(C)Oc1nc2cc(F)c(C(=O)Nc3cccc(-c4nnnn4C(C)C)n3)cc2nc1OC(C)C [Example 10]	> 1000
CC(C)n1cnnc1-c1cccc(NC(=O)c2ccc3cccnc3c2)n1 [Example 35]	> 1000
CC(C)Oc1nc2ccc(C(=O)Nc3cccc(-c4nncn4C(C)C)n3)cc2nc1N1CCOCC1 [Example 7]	100 to 1000
CC(C)n1cnnc1-c1cccc(NC(=O)c2cc3ccccc3cn2)n1 [Example 18]	1 to 10
CCn1nccc1-c1ccc2cnc(C(=O)Nc3cccc(-c4nncn4C(C)C)n3)cc2c1 [Example 23]	10 to 100
CC(C)n1cnnc1-c1cccc(NC(=O)c2ccc3ccc(N4CCN(C(C)(C)C)CC4)nc3c2)n1 [Example 27]	> 1000
CC(C)n1cnnc1-c1cccc(NC(=O)c2ccc3ccc(Cl)nc3c2)n1 [Example 34]	100 to 1000
CC(C)n1cnnc1-c1cccc(NC(=O)c2ccc3ccc(N4CCOCC4)nc3c2)n1 [Example 24]	100 to 1000
CC(C)n1cnnc1-c1cccc(NC(=O)c2ccc3cc(N4CCOCC4)cnc3c2)n1 [Example 38]	10 to 100
COCCNc1ccc2ccc(C(=O)Nc3cccc(-c4nncn4C(C)C)n3)cc2n1 [Example 33]	10 to 100
CC(C)n1cnnc1-c1cccc(NC(=O)c2ccc3ccc(N4CC5CCC(C4)O5)nc3c2)n1 [Example 30]	100 to 1000
CC(C)Nc1nc2cc(C(=O)Nc3cccc(-c4nncn4C(C)C)n3)c(F)cc2nc1OC(C)C [Example 15]	10 to 100
CCN(Cc1ccccc1)c1ccc2ccc(C(=O)Nc3cccc(-c4nncn4C(C)C)n3)cc2n1 [Example 31]	> 1000
CC(C)n1cnnc1-c1cccc(NC(=O)c2ccc3ccccc3c2)n1 [Example 39]	100 to 1000
CC(C)Oc1nc2cc(F)c(C(=O)Nc3cccc(-c4nncn4C(C)C)n3)cc2nc1OC(C)C [Example 11]	100 to 1000
COc1nc2cc(F)c(C(=O)Nc3cccc(-c4nncn4C(C)C)n3)cc2nc1N1CCCCC1 [Example 3]	10 to 100

The remaining lines, values ahead:

IC50 [nM]	Compound
100 to 1000	CC(C)n1cnnc1-c1cccc(NC(=O)c2cc3ccccc3cc2F)n1 [Example 40]
100 to 1000	COc1nc2cc(F)c(C(=O)Nc3cccc(-c4nnnn4C(C)C)n3)cc2nc1N1CCCCC1 [Example 16]
> 1000	CC(C)n1nnnc1-c1cccc(NC(=O)c2cc3cc(Br)ccc3cn2)n1 [Example 20]
100 to 1000	COc1nc2ccc(C(=O)Nc3cccc(-c4nncn4C(C)C)n3)cc2nc1NC(C)C [Example 8]
100 to 1000	COc1nc2ccc(C(=O)Nc3cccc(-c4nncn4C(C)C)n3)cc2nc1N1CCCCC1 [Example 5]
> 1000	CC(C)n1nnnc1-c1cccc(NC(=O)c2cc3ccccc3cc2F)n1 [Example 41]
100 to 1000	CC(C)n1cnnc1-c1cccc(NC(=O)c2ccc3cc(Br)cnc3c2)n1 [Example 36]
> 1000	CC(C)n1cnnc1-c1cccc(NC(=O)c2ccc3ccc(N(C)C)nc3c2)n1 [Example 25]
> 1000	CC(C)n1cnnc1-c1cccc(NC(=O)c2ccc3cc(-c4ccc(C(C)(C)C)cc4)cnc3c2)n1 [Example 37]
> 1000	CC(C)Oc1nc2cc(F)c(C(=O)Nc3cccc(-c4nnnn4C(C)C)n3)cc2nc1N(C)C(C)C [Example 9]
> 1000	CC(C)Oc1nc2ccc(C(=O)Nc3cccc(-c4nncn4C(C)C)n3)cc2nc1N1CCCCC1 [Example 6]
1 to 10	CC(C)n1cnnc1-c1cccc(NC(=O)c2cc3cc(Br)ccc3cn2)n1 [Example 19, 6-bromo-N-(6-(4-isopropyl-4H-1,2,4-triazol-3-yl)pyridin-2-yl)isoquinoline-3-carboxamide]
100 to 1000	CC(C)CN(C)c1nc2cc(C(=O)Nc3cccc(-c4nncn4C(C)C)n3)c(F)cc2nc1OC(C)C [Example 13]
> 1000	CC(C)CN(C)c1nc2cc(C(=O)Nc3cccc(-c4nnnn4C(C)C)n3)c(F)cc2nc1OC(C)C [Example 12]
10 to 100	CC(C)Nc1nc2cc(C(=O)Nc3cccc(-c4nncn4C(C)C)n3)ccc2nc1OC(C)C [Example 4]
100 to 1000	CC(C)n1cnnc1-c1cccc(NC(=O)c2ccc3nccnc3c2)n1 [Example 1]
1 to 10	CC(C)n1cnnc1-c1cccc(NC(=O)c2cc3cc(N4CCCCC4)ccc3cn2)n1 [Example 21]
